Test results taken from PMC4550849 (Scientific Reports, 2015).
pEC50: −log10 of the molar value.

Legend:
Ebola = conditions: in vivo; cited from earlier work
[1] = test system: acidic vesicles in RAW264.7 cells; assay type: cell-based, mouse; conditions: AQ 1 h, 500 ng/ml PA 1 h
SARS CoV Strain Urbani = assay: microbe, parasite or virus in culture; assay type: cell-based, SARS coronavirus; conditions: Severe acute respiratory syndrome coronavirus, Vero 76
Rabies (Strain Flury) = assay: microbe, parasite or virus in culture; assay type: cell-based; conditions: Lyssavirus rabies, BHK-21, 120 h
LF = LF (Bacillus anthracis, UniProt P15917); assay type: biochemical
LF, sequence (P15917 34-809 limits assumed): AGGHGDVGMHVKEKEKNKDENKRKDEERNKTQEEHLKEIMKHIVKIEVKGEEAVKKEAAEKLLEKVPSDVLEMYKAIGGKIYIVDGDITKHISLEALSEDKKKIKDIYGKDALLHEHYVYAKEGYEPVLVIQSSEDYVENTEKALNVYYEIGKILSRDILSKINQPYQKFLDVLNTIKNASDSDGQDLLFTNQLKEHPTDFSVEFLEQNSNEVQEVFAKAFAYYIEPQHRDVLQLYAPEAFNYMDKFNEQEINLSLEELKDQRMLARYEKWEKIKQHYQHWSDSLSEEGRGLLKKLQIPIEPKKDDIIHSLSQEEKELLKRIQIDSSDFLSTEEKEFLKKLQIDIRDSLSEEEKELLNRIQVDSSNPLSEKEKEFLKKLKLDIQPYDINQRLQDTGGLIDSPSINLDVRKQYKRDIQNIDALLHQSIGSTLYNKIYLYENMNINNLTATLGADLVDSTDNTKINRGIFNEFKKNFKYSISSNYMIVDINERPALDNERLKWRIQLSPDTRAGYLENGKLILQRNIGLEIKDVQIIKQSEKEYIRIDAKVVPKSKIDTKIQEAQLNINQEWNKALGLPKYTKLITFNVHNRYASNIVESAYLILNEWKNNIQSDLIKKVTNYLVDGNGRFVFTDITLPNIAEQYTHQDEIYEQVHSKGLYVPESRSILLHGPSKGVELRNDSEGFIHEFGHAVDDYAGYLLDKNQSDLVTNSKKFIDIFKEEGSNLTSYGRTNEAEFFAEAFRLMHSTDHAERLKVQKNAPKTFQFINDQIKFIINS

Chikungunya (CHIV) = assay: microbe, parasite or virus in culture; assay type: cell-based
[2] = test system: RAW264.7 cells treated with PA + FP59; assay type: cell-based, mouse
[3] = test system: anthrax toxin (LF + PA) lethality; design: species or system Sprague-Dawley rats; conditions: rat, in vivo
in vitro [4] = conditions: human
Ebola virus = conditions: cited from earlier work
[5] = test system: Venezuelan equine encephalitis virus (VEEV, Strain TC-83); assay: microbe, parasite or virus in culture; assay type: cell-based
in vitro [6] = conditions: African green monkey
[7] = test system: Respiratory syncytial virus (RSV): Strain A-2; assay: microbe, parasite or virus in culture; assay type: cell-based; conditions: human respiratory syncytial virus, HEp-2
[8] = test system: RAW264.7 cells treated with Pseudomonas aeruginosa Exotoxin A; assay: cells; assay type: cell-based; conditions: Mus musculus, RAW264.7, 6 h
Junin (JUNV) = assay: microbe, parasite or virus in culture; assay type: cell-based, Junin virus; conditions: Mammarenavirus juninense
[9] = test system: PA83 binding to RAW264.7 cells; assay type: cell-based, mouse
[10] = test system: Human Cytomegalovirus (CMV, Strain AD169); assay: microbe, parasite or virus in culture; assay type: cell-based; conditions: Human betaherpesvirus 5, AD169, HFF, 336 h
[11] = test system: C32 cells treated with diphtheria toxin; assay type: cell-based, human
[12] = test system: RAW264.7 cells treated with anthrax lethal toxin (PA + LF)
HeLa cells = conditions: human
[13] = molecular target: purified human cathepsin B (Homo sapiens, UniProt P07858); assay type: biochemical; conditions: 4, 8, 16, 33, or 66 μM; without pre-incubation; pH 5.8
[14] = test system: Herpes Simplex Virus 1 (HSV-1, Strain E-377); assay: microbe, parasite or virus in culture; assay type: cell-based; conditions: Human alphaherpesvirus 1, HFF, 72 h
[15] = test system: RAW264.7 cells treated with Clostridium difficile toxin B; assay: cells; assay type: cell-based; conditions: Mus musculus, RAW264.7, 6 h
[16] = test system: Plasmodium falciparum phosphoethanolamine methyltransferase; conditions: cited from earlier work
Ebola virus (EBOV) = assay: microbe, parasite or virus in culture; assay type: cell-based; conditions: Zaire ebolavirus, HFF-1, 48 h
in vitro [17] = conditions: hamster
Ebola virus (Kikwit) = assay: microbe, parasite or virus in culture; assay type: cell-based; conditions: Zaire ebolavirus, HeLa
[18] = test system: RAW264.7 cells treated with Cholera toxin; assay: cells; assay type: cell-based; conditions: Mus musculus, RAW264.7, 6 h
cathepsin B = cathepsin B (Homo sapiens, UniProt P07858); assay type: binding
caspase-1 = assay type: cell-based, mouse
MEK-2 = assay type: cell-based, mouse
Poliovirus: WM3 = assay: microbe, parasite or virus in culture; assay type: cell-based, Poliovirus 3; conditions: Enterovirus C, LLC-MK2
in vitro [19] = conditions: rhesus monkey
endosomal acidification = conditions: cited from earlier work
in vitro [20] = conditions: human; remark: listed apart in the source
[21] = test system: RAW264.7 cells treated with anthrax lethal toxin (PA + LF); assay: cells; conditions: Mus musculus, RAW264.7, read-out: EC50, reduction of anthrax toxin-mediated cytotoxicity
[22] = human, in vivo, cited from earlier work
[23] = test system: host lysosomal cathepsin B; conditions: cited from earlier work

For CCN(CC)Cc1cc(Nc2ccnc3cc(Cl)ccc23)ccc1O [AQ, Amodiaquine], the “reduction of Ebola mortality risk” value (Ebola) is given as 31%, the “cell-associated Lysosensor fluorescence (acidic organelles)” value [1] is given as “markedly decreased” and the pEC50 (SARS CoV Strain Urbani) is given as 5.62. The pEC50 (Rabies (Strain Flury)) was 5.24, the “proteolytic activity of LF on MAPKK peptide (emission at 523 nm)” value (LF) was “does not block” and the pEC50 (Chikungunya (CHIV)) was 4.74. For the same compound, the “sensitivity of cells to PA + FP59” value [2] was “less sensitive”, the “rats saved after lethal anthrax toxin challenge” value [3] was 40% and the “survival after lethal anthrax toxin challenge” value [3] was “all survived”. For the same compound, the CC50 (in vitro [4]; CC50) was 50 µM, the “Ebola virus pathogenicity in cells” value (Ebola virus) was “inhibit Ebola virus pathogenicity in cells” and the pEC50 [5] was 5.49. It also gave a CC50 (in vitro [6]) of 32 µM, a pEC50 [7] of 4.49 and a pEC50 [8] of less than 4.18. For the same compound, the pEC50 (Junin (JUNV)) was 4.77, the “binding of PA83 to cells” value [9] was “did not block” and the “proteolytic processing of PA to generate PA63” value [9] was “did not block”. For the same compound, the pEC50 [10] was less than 4.22, the “inhibition of diphtheria toxin cell killing (multiplex hit)” value [11] was “inhibited” and the “protection of host cells against anthrax toxin killing (cell viability, MTT)” value (“protection of host cells” below) [12] was “completely protect”. For the same compound, the “sensitivity of host cells to PA83 + LF and PA63 + LF” value [12] was “equally reduces sensitivity”, the CC50 (HeLa cells) was greater than 50 µM and the “inhibition of purified human cathepsin B activity” value [13] was “directly inhibit cathepsin B activity in a dose dependent manner”. The pEC50 [14] was less than 4.22, the pEC50 [15] was 5.34 and the “inhibition of Plasmodium falciparum phosphoethanolamine methyltransferase” value [16] was “inhibits”. It also gave a pEC50 (Ebola virus (EBOV)) of 5.59, a CC50 (in vitro [17]) greater than 10 µM and a pEC50 (Ebola virus (Kikwit)) of 5.62. For the same compound, the pEC50 (Ebola virus (Kikwit); 24 h) was 5.70, the pEC50 (Ebola virus (Kikwit); 48 h) was 5.40 and the pEC50 [18] was less than 4.18. The “binding to cathepsin B (STD difference spectrum)” value (cathepsin B; 2 mM AQ, 20 μM cathepsin B (100:1)) was “binding to the enzyme”, the “STD effect, atom H4” value (cathepsin B; relative to H4 atom (100%)) was 100% and the “STD effect, atom H5” value (cathepsin B; relative to H4 atom (100%)) was 97%. For the same compound, the “active caspase-1 after LF-PA treatment (FLICA)” value (caspase-1) was “not detected”, the “LF-PA-mediated cleavage of MEK2” value (MEK-2) was “completely prevented” and the pEC50 (Poliovirus: WM3) was less than 4.00. It also gave a CC50 (in vitro [19]) greater than 100 µM.

In the case of CCN(CC)CCCC(C)Nc1ccnc2cc(Cl)ccc12 (centres unmarked) [CQ, Chloroquine], the endosomal acidification (endosomal acidification) is listed as “prevent endosomal acidification”, the CC50 (in vitro [4]; CC50) is listed as 100 µM and the “Ebola virus pathogenicity in cells” value (Ebola virus) is listed as “inhibit Ebola virus pathogenicity in cells”. The “inhibition of diphtheria toxin cell killing (multiplex hit)” value [11] was “inhibited”, the CC50 (in vitro [20]) was 70 µM and the “inhibition of purified human cathepsin B activity” value [13] was “weaker inhibitors”. It also gave a pEC50 (Ebola virus (EBOV)) of 5.60 and a pEC50 (Ebola virus (Kikwit); 48 h) of 5.32.

With C=C[C@H]1C[N@@]2CC[C@H]1C[C@@H]2[C@@H](O)c1ccnc2ccccc12 [Cinchonine] the “protection of host cells” value [12] was “none”.

CCNCc1cc(Nc2ccnc3cc(Cl)ccc23)ccc1O [DEAQ, Desethyl-Amodiaquine] showed a pEC50 [21] of 5.30, a pEC50 (Chikungunya (CHIV)) of 4.76 and a CC50 (in vitro [4]; CC50) of 50 µM. It also gave a CC50 (in vitro [4]; CC50, 24 h) greater than 50 µM, a CC50 (in vitro [4]; CC50, 48 h) greater than 50 µM and a pEC50 (Junin (JUNV)) of 4.86. The “inhibition of purified human cathepsin B activity” value [13] was “directly inhibit cathepsin B activity in a dose dependent manner”, the pEC50 (Ebola virus (EBOV)) was 5.68 and the pEC50 (Ebola virus (Kikwit); 24 h) was 5.70. For the same compound, the pEC50 (Ebola virus (Kikwit); 48 h) was 5.40, the terminal half-life ([22]; po) was 220 to 432 h and the “Cmax (maximal amounts of drug in the blood after oral administration)” value [22] was “low μM range”.

In the case of CCNCCCC(C)Nc1ccnc2cc(Cl)ccc12 (centres unmarked) [DECQ, Desethyl-Chloroquine], the CC50 (in vitro [4]; CC50) was 100 µM, the CC50 (in vitro [20]) was 70 µM and the “inhibition of purified human cathepsin B activity” value [13] was “weaker inhibitors”. For the same compound, the pEC50 (Ebola virus (EBOV)) was 5.49 and the pEC50 (Ebola virus (Kikwit); 48 h) was 5.14.

With COc1cc(NC(C)CCCN)c2ncccc2c1 (centres unmarked) [Primaquine] the “protection of host cells” value [12] was “none”.

With C=C[C@H]1C[N@@]2CC[C@H]1C[C@@H]2[C@@H](O)c1ccnc2ccc(OC)cc12 [Quinidine] the “protection of host cells” value [12] was “none”.

For CA-074, the “accumulation of PA pores in late endosomes” value [23] is listed as “elevated accumulation”, the “cellular sensitivity to LF-PA” value [23] is listed as “reduction of cellular sensitivity” and the “release of LF from the late endosomes into the cytoplasm” value [23] is listed as “inability of LF to be released”.
